Measurements from the NIST ThermoML archive (doi:10.1016/j.fluid.2018.10.006).

Conditions: Fluid (supercritical or subcritical phases), Coaxial cylinder method

CCCCCC [hexane]
Conditions	thermal conductivity [W/m/K]
509.85 K, 7800 kPa	0.07673
509.85 K, 8000 kPa	0.07679
509.85 K, 8200 kPa	0.07703
509.85 K, 8500 kPa	0.07741
509.85 K, 9000 kPa	0.07802
509.85 K, 9500 kPa	0.07856
509.85 K, 10000 kPa	0.0791
510.36 K, 245 kPa	0.0379
510.36 K, 1000 kPa	0.03854
510.36 K, 2245 kPa	0.04183
510.36 K, 2715 kPa	0.04665
510.36 K, 3110 kPa	0.06796
510.36 K, 3112 kPa	0.06824
510.36 K, 3114 kPa	0.06881
510.36 K, 3116 kPa	0.06939
510.36 K, 3118 kPa	0.07027
510.36 K, 3120 kPa	0.07087
510.36 K, 3122 kPa	0.07148
510.36 K, 3124 kPa	0.07242
510.36 K, 3126 kPa	0.07338
510.36 K, 3128 kPa	0.07403
510.36 K, 3130 kPa	0.0747
510.36 K, 3132 kPa	0.07538
510.36 K, 3133 kPa	0.07607
510.36 K, 3134 kPa	0.07624
510.36 K, 3137 kPa	0.0784
510.36 K, 3138 kPa	0.07915
510.36 K, 3139 kPa	0.07991
510.36 K, 3140 kPa	0.08056
510.36 K, 3141 kPa	0.08119
510.36 K, 3142 kPa	0.08199
510.36 K, 3143 kPa	0.08268
510.36 K, 3144 kPa	0.0833
510.36 K, 3145 kPa	0.08393
510.36 K, 3146 kPa	0.08457
510.36 K, 3147 kPa	0.08501
510.36 K, 3148 kPa	0.08552
510.36 K, 3150 kPa	0.08631
510.36 K, 3151 kPa	0.08656
510.36 K, 3152 kPa	0.08673
510.36 K, 3153 kPa	0.08695
510.36 K, 3154 kPa	0.08709
510.36 K, 3155 kPa	0.087
510.36 K, 3156 kPa	0.08691
510.36 K, 3157 kPa	0.08682
510.36 K, 3158 kPa	0.08656
510.36 K, 3159 kPa	0.08634
510.36 K, 3160 kPa	0.08604
510.36 K, 3161 kPa	0.08582
510.36 K, 3162 kPa	0.08548
510.36 K, 3163 kPa	0.08518
510.36 K, 3164 kPa	0.08476
510.36 K, 3166 kPa	0.08393
510.36 K, 3168 kPa	0.0832
510.36 K, 3170 kPa	0.08248
510.36 K, 3172 kPa	0.08173
510.36 K, 3174 kPa	0.08088
510.36 K, 3176 kPa	0.08019
510.36 K, 3178 kPa	0.07941
510.36 K, 3180 kPa	0.07883
510.36 K, 3182 kPa	0.07826
510.36 K, 3184 kPa	0.07767
510.36 K, 3186 kPa	0.07716
510.36 K, 3188 kPa	0.07654
510.36 K, 3190 kPa	0.076
510.36 K, 3192 kPa	0.07563
510.36 K, 3194 kPa	0.07525
510.36 K, 3196 kPa	0.07489
510.36 K, 3198 kPa	0.07452
510.36 K, 3200 kPa	0.07416
510.36 K, 3202 kPa	0.0738
510.36 K, 3204 kPa	0.07362
510.36 K, 3206 kPa	0.07337
510.36 K, 3208 kPa	0.07309
510.36 K, 3210 kPa	0.07292
510.36 K, 3212 kPa	0.07274
510.36 K, 3214 kPa	0.0724
510.36 K, 3216 kPa	0.0724
510.36 K, 3218 kPa	0.07206
510.36 K, 3220 kPa	0.07206
510.36 K, 3222 kPa	0.07189
510.36 K, 3225 kPa	0.07175
510.36 K, 3228 kPa	0.07155
